Measured values reported in ChEMBL document CHEMBL4041538, “Bioreductively activatable prodrug conjugates of phenstatin designed to target tumor hypoxia” (Bioorg Med Chem Lett, 2017).

Assays:
[1] = species on record: Bos taurus; assay: Inhibition of [3H]colchicine binding to bovine brain tubulin at 5 uM after 10 mins by scintillation counting method relative to control
[2] = Inhibition of bovine brain tubulin polymerization preincubated for 15 mins followed by GTP addition measured after 20 mins by Spectrophotometric method; parameters: species or system Bos taurus
[3] = target: T1, NADPH--cytochrome P450 reductase (P450 oxidoreductase) (Rattus norvegicus, UniProt P00388); assay: Drug metabolism in pH 7.4 PBS assessed as rat P450 oxidoreductase-mediated compound hydrolysis preincubated for 20 mins followed by protocatechuate 3,4-dioxygenase addition to create anoxic condition and subsequent addition of P450 oxidoreductase in presence of NADPH after 24 hrs by HPLC method; assay type: ADME; conditions: rat P450 oxidoreductase with NADPH in PBS, read-out: Drug metabolism
T1 sequence (P00388 whole entry): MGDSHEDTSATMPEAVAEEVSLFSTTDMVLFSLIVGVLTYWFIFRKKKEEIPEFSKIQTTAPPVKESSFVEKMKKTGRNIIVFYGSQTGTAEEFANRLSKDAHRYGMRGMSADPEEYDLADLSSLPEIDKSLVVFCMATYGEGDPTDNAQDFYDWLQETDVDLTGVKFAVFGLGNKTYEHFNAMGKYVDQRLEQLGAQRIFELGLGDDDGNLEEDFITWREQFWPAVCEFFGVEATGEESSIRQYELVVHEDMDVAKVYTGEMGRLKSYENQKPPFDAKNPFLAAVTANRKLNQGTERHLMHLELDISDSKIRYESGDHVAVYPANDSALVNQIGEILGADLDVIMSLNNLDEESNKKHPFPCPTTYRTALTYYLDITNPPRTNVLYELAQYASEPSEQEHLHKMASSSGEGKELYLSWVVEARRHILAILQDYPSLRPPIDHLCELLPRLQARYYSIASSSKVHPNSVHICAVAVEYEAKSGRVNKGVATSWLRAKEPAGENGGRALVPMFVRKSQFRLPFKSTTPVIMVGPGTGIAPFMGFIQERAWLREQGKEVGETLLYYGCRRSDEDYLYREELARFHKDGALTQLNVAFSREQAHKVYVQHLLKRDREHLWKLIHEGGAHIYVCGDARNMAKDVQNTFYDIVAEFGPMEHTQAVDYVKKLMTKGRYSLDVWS

[4] = Drug metabolism in pH 7.4 PBS assessed as compound hydrolysis after 24 hrs by HPLC method; assay type: physicochemical; conditions: read-out: Drug metabolism

Compound | inhibition [1] [%] | IC50 [2] [µM] | metabolised at 24 h [3] [%] | degraded at 24 h [4] [%]
COc1ccc(C(=O)c2cc(OC)c(OC)c(OC)c2)cc1O [PHENSTATIN] | 85 | 1 | – | –
COc1ccc(/C=C\c2cc(OC)c(OC)c(OC)c2)cc1O [COMBRETASTATIN A4] | – | 0.73 | – | –
COc1ccc(C(=O)c2cc(OC)c(OC)c(OC)c2)cc1OC(C)(C)c1ccc([N+](=O)[O-])s1 | 16 | 9 | 100 | 0
COc1ccc(C(=O)c2cc(OC)c(OC)c(OC)c2)cc1OC(C)c1ccc([N+](=O)[O-])s1 (stereo unspecified) | 15 | > 20 | – | –
COc1ccc(C(=O)c2cc(OC)c(OC)c(OC)c2)cc1OC(C)(C)c1ccc([N+](=O)[O-])cc1 | 8.8 | > 20 | 0 | 0
COc1ccc(C(=O)c2cc(OC)c(OC)c(OC)c2)cc1OCc1ccc([N+](=O)[O-])cc1 | 11 | > 20 | – | –

More lines, now with the values ahead:

inhibition [1] [%] | IC50 [2] [µM] | metabolised at 24 h [3] [%] | degraded at 24 h [4] [%] | Compound
16 | 12 | – | – | COc1ccc(C(=O)c2cc(OC)c(OC)c(OC)c2)cc1OC(C)c1ccc([N+](=O)[O-])o1 (stereo unspecified)
17 | 15 | – | – | COc1ccc(C(=O)c2cc(OC)c(OC)c(OC)c2)cc1OCc1ccc([N+](=O)[O-])o1
5.8 | > 20 | – | – | COc1ccc(C(=O)c2cc(OC)c(OC)c(OC)c2)cc1OC(C)c1ccc([N+](=O)[O-])cc1 (stereo unspecified)
19 | 16 | – | – | COc1ccc(C(=O)c2cc(OC)c(OC)c(OC)c2)cc1OCc1ccc([N+](=O)[O-])s1
13 | > 20 | 100 | 0 | COc1ccc(C(=O)c2cc(OC)c(OC)c(OC)c2)cc1OC(C)(C)c1ccc([N+](=O)[O-])o1
11 | > 20 | – | – | COc1ccc(C(=O)c2cc(OC)c(OC)c(OC)c2)cc1OC(C)c1cnc([N+](=O)[O-])n1C (stereo unspecified)
7.1 | > 20 | – | – | COc1ccc(C(=O)c2cc(OC)c(OC)c(OC)c2)cc1OCc1cnc([N+](=O)[O-])n1C
